Legend:
[1] = Plasma free fraction (fp) by ultrafiltration; format: in vitro ADME, rhesus monkey; settings: monkey, plasma (separated from spiked whole blood)
[2] = Radiation dosimetry from whole-body PET biodistribution; format: in vivo, rhesus monkeys; settings: for maximum permissible single-study dosage: urinary bladder wall critical organ, 21 CFR 361.1
Experimental: Two whole-body biodistribution studies were performed in two rhesus monkeys (9.4 kg female and 17.0 kg male) to estimate human organ radiation dosimetry. Scans were carried out on a Biograph mCT (hybrid PET/CT, Siemens Medical Systems, Knoxville, TN) scanner following i.v. injections of 187.6 MBq (5.1 mCi) and 173.9 MBq (4.7 mCi) [^18F]SDM-16, and mass doses of 0.27 µg and 0.24 µg at time of injection, respectively. Monkeys were scanned for about 4 h in a sequence of 22–24 passes from top of the head to the mid-thigh. Scans were reconstructed and visually inspected for organ activity concentrations exceeding background level. The organs included were the brain, heart, liver, gall bladder, spleen, kidneys, and urinary bladder contents. Regions of interest were delineated on these organs, and mean activity values were computed to form TACs.
Within-pass decay correction was removed to reflect the actual activity in each organ, and cumulative activity (Bq^.h/cm^3) computed by integration of the data from the scan. The tail portions beyond the end of the scan were extrapolated assuming only physical decay of the tracer. These values were multiplied by the organ volumes of a standard 55-kg adult female reference and 70-kg adult male mathematical phantom, and then normalized to injected activity to obtain organ residence times (N, h). Final values were then entered into the OLINDA software to obtain absorbed doses in all organs, which were computed with different voiding assumptions.

[3] = Measurement of lipophilicity (octanol / PBS pH 7.4); format: physicochemical; settings: octanol/PBS pH 7.4

Cc1nccn1CN1C[C@@H](c2cc(F)cc([18F])c2)CC1=O [[^18F]SDM-16, (R)-4-(3-fluoro-5-(fluoro-^18F)phenyl)-1-((2-methyl-1H-imidazol-1-yl)methyl)pyrrolidin-2-one]
fraction unbound at 5 min [1]: 0.69
total ED of a single-study dosage ([2]; 185 MBq (5 mCi)): 3.9 mSv
mean organ radiation dose estimate ([2]; Adrenals, adult female phantom): 0.0157 mGv/MBq
mean organ radiation dose estimate ([2]; Adrenals, adult male phantom): 0.0135 mGv/MBq
mean organ radiation dose estimate ([2]; Brain, adult female phantom): 0.1032 mGv/MBq
mean organ radiation dose estimate ([2]; Brain, adult male phantom): 0.0732 mGv/MBq
mean organ radiation dose estimate ([2]; Breasts, adult female phantom): 0.0087 mGv/MBq
mean organ radiation dose estimate ([2]; Breasts, adult male phantom): 0.0073 mGv/MBq
average residence time N ([2]; Gall Bladder, Female): 0.015 h
average residence time N ([2]; Gall Bladder, Male): 0.021 h
mean organ radiation dose estimate ([2]; Gallbladder Wall, adult female phantom): 0.0441 mGv/MBq
mean organ radiation dose estimate ([2]; Gallbladder Wall, adult male phantom): 0.0484 mGv/MBq
mean organ radiation dose estimate ([2]; Heart Wall, adult female phantom): 0.0158 mGv/MBq
mean organ radiation dose estimate ([2]; Heart Wall, adult male phantom): 0.0137 mGv/MBq
average residence time N ([2]; Heart, Female): 0.015 h
average residence time N ([2]; Heart, Male): 0.017 h
mean organ radiation dose estimate ([2]; Kidneys, adult female phantom): 0.0454 mGv/MBq
mean organ radiation dose estimate ([2]; Kidneys, adult male phantom): 0.0478 mGv/MBq
mean organ radiation dose estimate ([2]; LLI Wall, adult female phantom): 0.0145 mGv/MBq
mean organ radiation dose estimate ([2]; LLI Wall, adult male phantom): 0.0114 mGv/MBq
mean organ radiation dose estimate ([2]; Liver, adult female phantom): 0.0538 mGv/MBq
mean organ radiation dose estimate ([2]; Liver, adult male phantom): 0.0454 mGv/MBq
mean organ radiation dose estimate ([2]; Lungs, adult female phantom): 0.0116 mGv/MBq
mean organ radiation dose estimate ([2]; Lungs, adult male phantom): 0.0096 mGv/MBq
mean organ radiation dose estimate ([2]; Muscle, adult female phantom): 0.0110 mGv/MBq
mean organ radiation dose estimate ([2]; Muscle, adult male phantom): 0.0093 mGv/MBq
mean organ radiation dose estimate ([2]; Osteogenic Cells, adult female phantom): 0.0188 mGv/MBq
mean organ radiation dose estimate ([2]; Osteogenic Cells, adult male phantom): 0.0147 mGv/MBq
mean organ radiation dose estimate ([2]; Ovaries, adult female phantom): 0.0147 mGv/MBq
mean organ radiation dose estimate ([2]; Pancreas, adult female phantom): 0.0154 mGv/MBq
mean organ radiation dose estimate ([2]; Pancreas, adult male phantom): 0.0134 mGv/MBq
mean organ radiation dose estimate ([2]; Red Marrow, adult female phantom): 0.0120 mGv/MBq
mean organ radiation dose estimate ([2]; Red Marrow, adult male phantom): 0.0098 mGv/MBq
average residence time N ([2]; Remainder, Female): 1.504 h
average residence time N ([2]; Remainder, Male): 1.608 h
mean organ radiation dose estimate ([2]; Skin, adult female phantom): 0.0087 mGv/MBq
mean organ radiation dose estimate ([2]; Skin, adult male phantom): 0.0073 mGv/MBq
mean organ radiation dose estimate ([2]; Small Intestine, adult female phantom): 0.0130 mGv/MBq
mean organ radiation dose estimate ([2]; Small Intestine, adult male phantom): 0.0116 mGv/MBq
mean organ radiation dose estimate ([2]; Spleen, adult female phantom): 0.0122 mGv/MBq
mean organ radiation dose estimate ([2]; Spleen, adult male phantom): 0.0104 mGv/MBq
mean organ radiation dose estimate ([2]; Stomach Wall, adult female phantom): 0.0125 mGv/MBq
mean organ radiation dose estimate ([2]; Stomach Wall, adult male phantom): 0.0107 mGv/MBq
average residence time N ([2]; Sum, Female): 2.621 h
average residence time N ([2]; Sum, Male): 2.621 h
mean organ radiation dose estimate ([2]; Testes, adult male phantom): 0.0090 mGv/MBq
mean organ radiation dose estimate ([2]; Thymus, adult female phantom): 0.0107 mGv/MBq
mean organ radiation dose estimate ([2]; Thymus, adult male phantom): 0.0089 mGv/MBq
mean organ radiation dose estimate ([2]; Thyroid, adult female phantom): 0.0101 mGv/MBq
mean organ radiation dose estimate ([2]; Thyroid, adult male phantom): 0.0098 mGv/MBq
mean organ radiation dose estimate ([2]; Total Body, adult female phantom): 0.0146 mGv/MBq
mean organ radiation dose estimate ([2]; Total Body, adult male phantom): 0.0119 mGv/MBq
mean organ radiation dose estimate ([2]; ULI Wall, adult female phantom): 0.0141 mGv/MBq
mean organ radiation dose estimate ([2]; ULI Wall, adult male phantom): 0.0119 mGv/MBq
mean organ radiation dose estimate ([2]; Urinary Bladder Wall, adult female phantom): 0.1368 mGv/MBq
mean organ radiation dose estimate ([2]; Urinary Bladder Wall, adult male phantom): 0.0762 mGv/MBq
average residence time N ([2]; Urinary Bladder, Female): 0.193 h
average residence time N ([2]; Urinary Bladder, Male): 0.143 h
mean organ radiation dose estimate ([2]; Uterus, adult female phantom): 0.0180 mGv/MBq
Effective Dose ([2]; adult female phantom): 0.0211 mGv/MBq
Effective Dose Equivalent ([2]; adult female phantom): 0.0316 mGv/MBq
Effective Dose ([2]; adult male phantom): 0.0156 mGv/MBq
Effective Dose Equivalent ([2]; adult male phantom): 0.0246 mGv/MBq
absorbed dose ([2]; brain, female): 0.1032 mGy/MBq
average residence time N ([2]; brain, female): 0.532 h
absorbed dose ([2]; brain, male): 0.0732 mGy/MBq
average residence time N ([2]; brain, male): 0.430 h
effective dose (ED) ([2]; female): 21.1 µSv/MBq
maximum permissible single-study dosage ([2]; female): 365.6 MBq
absorbed dose ([2]; gallbladder wall, female): 0.0441 mGy/MBq
absorbed dose ([2]; gallbladder wall, male): 0.0484 mGy/MBq
absorbed dose ([2]; kidneys, female): 0.0454 mGy/MBq
average residence time N ([2]; kidneys, female): 0.057 h
absorbed dose ([2]; kidneys, male): 0.0478 mGy/MBq
average residence time N ([2]; kidneys, male): 0.067 h
absorbed dose ([2]; liver, female): 0.0538 mGy/MBq
average residence time N ([2]; liver, female): 0.305 h
absorbed dose ([2]; liver, male): 0.0454 mGy/MBq
average residence time N ([2]; liver, male): 0.335 h
effective dose (ED) ([2]; male): 15.6 µSv/MBq
maximum permissible single-study dosage ([2]; male): 656.0 MBq
absorbed dose ([2]; urinary bladder wall, female): 0.1368 mGy/MBq
absorbed dose ([2]; urinary bladder wall, male): 0.0762 mGy/MBq
logP [3]: 1.65 ± 0.05

Reference: article PMC8940841, “A metabolically stable PET tracer for imaging synaptic vesicle protein 2A: synthesis and preclinical characterization of [^18F]SDM-16” (European Journal of Nuclear Medicine and Molecular Imaging, 2021)
